Data from PMC9120013, “Ribosome inhibition by C9ORF72-ALS/FTD-associated poly-PR and poly-GR proteins revealed by cryo-EM” (Nature Communications, 2022).
Where two headings read alike, the source gives them in different places. Ends that are not written are not given here.

Assays:
[1] = system: ribosomes on endogenous beta-globin mRNA in RRL; assay: Toeprinting of 80S and 4-5-mer polysome fractions on beta-globin mRNA; assay type: biochemical, rabbit; conditions: for Ratio (START to CDS) / Normalized ratio START/ORF: 80S fraction, primer A, Fig. 2f independent repeat; for Normalized ratio START/ORF: no inhibitor = 1; for normalized ratio START to CDS, MEAN: 4-5-mer, primer B, mean of ten 20 bp windows
Description: Toeprinting analyses were carried out similarly to those in refs. [51],[74], using 80S and polysome (4–5-some) fractions collected from polysome profiles as described in “Polysome Profiles” except that reactions were doubled in size (200 μL), performed at 37 °C, and were stopped with ice-cold 1xAMV Buffer (50 mM Tris-HCl pH 8.3, 50 mM KCl, 5 mM MgCl2) with 200 μg/ml cycloheximide before being separated on at 10–35% sucrose gradient in 1xAMV buffer with 0.5 mM spermidine and 1 mM DTT. 600 μl of each fraction (80S or 4–5-mer) was supplemented with 10 mM DTT. Then 10 U of AMV reverse transcriptase (Promega), 120 nmol dNTPs, and 120 pmol of a 5'[6-carboxyfluorescein (FAM)]-labeled primer (IDT-DNA) were added. Two primers specific to the endogenous beta-globin mRNA in RRL were used in separate reactions: 5′-(FAM)-GGACTCGAAGAACCTCTG (as in ref. [74]) annealed 136 nucleotides downstream of the AUG or 5′-(FAM)-[…] annealed to the end of the 3'-UTR. Primers were extended at 37 °C for 30 min, and then the reaction were extracted in 1:1 phenol:chloroform, supplemented with 1/10 volume of 3 M sodium acetate pH 5.2, and precipitated with 2.5 volumes of 100% ethanol. Pellets were resuspended in 10 μl of deionized formamide (Applied Biosystems) with 1/20 volume of a 35-500 nucleotide orange-dye labeled DNA size standard (MCLab) and loaded onto a 96-well plate. The samples were sent for fragment analysis by capillary electrophoresis to the UMass Chan Medical School Molecular Biology Core Laboratory using an ABI3730XL DNA Fragment Analyzer with capillaries loaded with POP-7 polymer and with an injection voltage of 12.5 kV. Data collection was performed with GeneMapper software (ABI). Data were exported as.fsa files and were analyzed (aligning to ladder and background correction) in GeneMarker 3.0.1 software (SoftGenetics) running in demo mode. Screen captures of traces were taken and traces were integrated using the “Quantification” feature and manually adjusting sliders to include the desired nucleotide range.

[2] = target: translation of nanoluciferase mRNA in rabbit reticulocyte lysates; assay: Nanoluciferase mRNA translation in rabbit reticulocyte lysate, inhibitor preincubated 5 min before mRNA; assay type: biochemical; conditions: for IC50: same extracts as the DPR assay, read-out: IC50 in RRL extracts, range stated in the response to reviewers
Excerpt: Rabbit reticulocyte lysates (RRL, Promega) were used to investigate the inhibition of translation by DPR proteins. We independently monitored translation of two mRNAs encoding non-homologous proteins of different lengths: nanoluciferase[71] and firefly luciferase. To measure the IC50s of the translational inhibitors cycloheximide (Akros Organics), harringtonine (AbCam), GDPCP (Jena Biosciences), PR20 and GR20, we monitored the translation of nanoluciferase mRNA in nuclease-treated RRL (Promega). […] Next, 10 ng/μl (final concentration) 6xhis-Nanoluciferase mRNA flanked with the 5'- and 3'-UTR from rabbit beta-globin[48] was added and the luminescence reactions were continuously measured by an Infinite m1000 pro microplate reader (Tecan) for 15 min at 30 °C. The 1st derivative of the luminescence reactions was determined in Prism 8 (GraphPad Software, LLC) and the maximum was identified and the mean of three maximums from independent experiments for each inhibitor was taken as the rate. The rates were plotted versus inhibitors concentration, and the plots were fitted in Prism 8 (GraphPad Software, LLC) to a 3-parameter inhibition model (Y = baseline + (max-baseline)/(1 + X/IC50)) to obtain the IC50 values where the baseline was constrained to 0. This procedure was modified to separate translation initiation from translation elongation by changing the time of addition of the inhibitors to ~300 s after mRNA addition when RLUs had reached a value of ~50,000. Here, the maximum of the first derivative was taken in the 2nd or later measurement taken after inhibitor addition.
The following additional controls indicate that DPR-induced changes in fluorescence were caused by translation inhibition.

[3] = system: rabbit 80S ribosomes; assay: Kinetic peptidyl transfer (puromycin) assay on rabbit 80S ribosomes; assay type: biochemical
Excerpt: To test the effects of PR20 on the mammalian peptidyl transferase, 80S ribosomes were purified from rabbit reticulocyte lysate (Green Hectares) and dissociated into 40S and 60S subunits as described in the section entitled “Cryo-EM complex of mammalian 80S ribosome with PR20”. A model leaderless mRNA fragment placing the AUG codon in the P-site and the UUC codon in the A site (CCAC AUG UUC CCCCCCCCCCCCCCCCCC), was synthesized by IDT. The 80S•mRNA•fMet-tRNA^fMet complex with PRn (where n = 10, 20, or 40) or GR20 was assembled as follows. one micrometer 60S subunit was mixed with the DPR (starting with the initial DPR concentration of 33x relative to its final concentration in the reaction) in Assembly Buffer containing 20 mM Tris-acetate (pH 7.0), 100 mM KOAc, 10 mM Mg(OAc)2, and the mixture was incubated for 5 min at 30 °C. […] 1095 nM [^35S]-fMet-tRNA^fMet and the 60S solution were added (0.5 volumes of the 40S solution), resulting in the following concentrations: 330 nM 60S, 400 nM 40S, 730 nM tRNA, 11 µM mRNA and 11x of final concentration of a DPR in the buffer (20 mM Tris-acetate (pH 7.0), 100 mM KOAc, 10 mM Mg(OAc)2). The solution was incubated for 5 min at 30 °C. The solution was diluted ten times with the same buffer, then puromycin (prepared in the same buffer) was added and time progress curves were recorded.
(§1) The kinetics of puromycin reaction on the 70S or 80S ribosomes were recorded and analyzed essentially as described. An aliquot (4.5 μl) of the complex prior to addition of puromycin was quenched in 30 μl of saturated MgSO4 in 0.1 M NaOAc to represent the zero-time point. Five microliters of 500 µM puromycin (in the same buffer as that used for the ribosomal complex) was added to 45 μl of the complex to initiate the reaction, yielding estimated final concentrations: 30 nM for the ribosome, 1 µM mRNA, 66 nM [^35S]-fMet-tRNA^fMet, 50 µM puromycin, and varying concentrations of PRn and GRn peptides, from 30 nM to 2 μM. After 6, 15, 30, 90 s, and 5, 15, 30, 60, and (for slower reactions) 180 min, 5-μl aliquots were quenched in 30 μl of saturated MgSO4 in 0.1 M NaOAc. All quenched samples were extracted with 700 μl ethyl-acetate. 600 μl of the extract were mixed with 3.5 ml of Econo-Safe scintillation cocktail (RPI), and the amount of released [^35S]-labeled dipeptide was measured for each time point using a scintillation counter (Beckman Coulter, Inc.).
(§2) All time progress curves were recorded in duplicates, using independently prepared 70S or 80S complexes. Reaction rates were calculated using single-exponential or double-exponential (80S complexes) regressions for different concentrations of PRn and GRn using GraphPad Prism 8. Hyperbola fitting in Gnuplot was used to derive apparent Ki-values.

[4] = system: E. coli 70S ribosomes; assay: Kinetic peptidyl transfer (puromycin) assay on E. coli 70S ribosomes; assay type: biochemical; conditions: for Ki: n = 2
Description: The effects of GRn or PRn on peptide bond formation in E. coli ribosome were tested in an in vitro assay that reacts the 70S ribosome loaded with [^35S]-fMet-tRNA^fMet in the P-site with puromycin, an A-site tRNA mimic, and measures the release of the resulting dipeptide containing formyl-methionine covalently bonded to puromycin, as described. E. coli tRNA^fMet (Chemical Block) was aminoacylated with [^35S]-N-formyl-L-methionine (Perkin Elmer) as described. 70S ribosomes were prepared from E. coli (MRE600) as described. 70S ribosomes were stored in the ribosome-storage buffer (20 mM Tris-HCl, pH 7.0; 100 mM NH4Cl; 20 mM MgCl2) at –80 °C. A model mRNA fragment, containing the Shine-Dalgarno sequence and a spacer to position the AUG codon in the P-site and the UUC codon in the A site (GGCAAGGAGGUAAAAAUGUUC AAAAAA), was synthesized by IDT. 70S•mRNA•fMet-tRNA^fMet complexes with GRn (where n = 4, 10 or 20) or PRn (where n = 4, 10, 20 or 40) were formed as follows. 330 nM 70S ribosomes were incubated with 11 µM mRNA in buffer containing 20 mM Tris-acetate (pH 7.0), 100 mM NH4OAc, 12 mM Mg(OAc)2, for 2 min at 37 °C. 730 nM [^35S]-fMet-tRNA^fMet was added and incubated for 5 min at 37 °C. The solution was diluted 9.6-fold with the same buffer, followed by addition of a GRn or PRn repeat peptide (22x relative to its final concentration). The complex was incubated for 5 min at 37 °C prior to addition of puromycin dissolved in the same buffer (see below).
as §1, §2

[5] = target: Escherichia coli 70S ribosome (E. coli)
[6] = target: Oryctolagus cuniculus (rabbit) 80S ribosome (rabbit (Oryctolagus cuniculus)) (UniProt G1SVW5)
[7] = 30 nM 70S, 50 µM puromycin, 37 °C, read-out: apparent inhibition constant (Ki) of peptidyl transfer

In the case of C[C@@H]1C[C@@H]([C@H](O)CC2CC(=O)NC(=O)C2)C(=O)[C@@H](C)C1 [Cycloheximide], the “site of ribosome accumulation, toe-printing of polysome fractions” value [1] is reported as “accumulate within the open reading frame”, the “Ratio (START to CDS)” value [1] is reported as 3.435 and the “Normalized ratio START/ORF” value [1] is reported as 1.274. The “normalized ratio START to CDS, MEAN” value ([1]; Fig. 2g) was 0.5607, the “normalized ratio START to CDS, MEAN” value ([1]; Fig. 2h independent repeat) was 0.326 and the IC50 [2] was 10 to 500 nM.

With COC(=O)C[C@](O)(CCC(C)(C)O)C(=O)O[C@@H]1C(OC)=C[C@]23CCCN2CCc2cc4c(cc2[C@H]13)OCO4 [Harringtonine] the “site of ribosome accumulation, toe-printing of polysome fractions” value [1] was “accumulate at the start codon”, the “Ratio (START to CDS)” value [1] was 6.47 and the “Normalized ratio START/ORF” value [1] was 2.399. The “normalized ratio START to CDS, MEAN” value ([1]; Fig. 2g) was 9.437, the “normalized ratio START to CDS, MEAN” value ([1]; Fig. 2h independent repeat) was 4.139 and the IC50 [2] was 10 to 500 nM.

With N=C(N)NCCC[C@H](N)C(=O)O [L-arginine, reference compound] the “effect on peptidyl transfer on rabbit 80S” value ([3]; 50 µM) was “does not”, the “effect on peptidyl transfer on 70S” value ([4]; 50 µM (Supplementary Fig. 2b)) was “does not affect the peptidyl transfer reaction” and the “effect on nanoluciferase translation in RRL” value ([2]; 100 μM) was “not inhibited”.

“GR20 (poly-glycine-arginine, 20 repeats) (peptide)” gave an apparent inhibition constant (Ki) of peptidyl transfer from [35S]-fMet-tRNAfMet to puromycin on E. coli 70S ribosomes [5] of 164 nM, an IC50 of translation of nanoluciferase mRNA in 33% rabbit reticulocyte lysate [6] of 425 nM and an IC50 of translation of nanoluciferase mRNA in 50% rabbit reticulocyte lysate [6] of 640 nM.

In the case of GRGRGRGR [GR4], the Ki [4, 7] is reported as greater than 2000 nM and the “effect on peptidyl transfer on 70S” value ([4]; 2 µM) is reported as “fail to inhibit peptidyl transfer”.

PRPRPRPR [PR4] was tested, and the Ki [4, 7] was greater than 2000 nM and the “effect on peptidyl transfer on 70S” value ([4]; 2 µM) was “fail to inhibit peptidyl transfer”.

For PRPRPRPRPRPRPRPRPRPR [PR10], the “effect on peptidyl transfer on rabbit 80S” value ([3]; 2 µM, n=2) was “no inhibition” and the Ki ([4]; source data of Fig. 3b, unit printed in the legend b16 only, read-out: Ki, app of fMet-Pmn release from 70S) was 1050 nM.

PRPRPRPRPRPRPRPRPRPR [PR10 (poly-proline-arginine, 10 repeats)] was tested, and the apparent inhibition constant (Ki) of peptidyl transfer to puromycin on E. coli 70S ribosomes [5] was 1000 nM.

Molecule GRGRGRGRGRGRGRGRGRGR [GR10 (poly-glycine-arginine, 10 repeats)] has an apparent inhibition constant (Ki) of peptidyl transfer to puromycin on E. coli 70S ribosomes [5] of 600 nM.

B1: PR40: poly-PR peptide of 40 repeats (peptide)
peptide: PRPRPRPRPRPRPRPRPRPRPRPRPRPRPRPRPRPRPRPRPRPRPRPRPRPRPRPRPRPRPRPRPRPRPRPRPRPRPRPR
B1 gave a Ki ([3]; rabbit 80S) of no more than 30 nM and a Ki [4, 7] of no more than 30 nM.
